Laboratory results: patent publication US11299480B2, “2-arylsulfonamido-N-arylacetamide derivatized STAT3 inhibitors” (University of Hawaii, priority 2017, dated 2022)
Where two headings read alike, the source gives them in different places. One block for each compound: values may come before it.

Legend:
[1] = Mouse liver microsomal (MLM) metabolic stability; settings: mouse, liver microsomes
[2] = Human liver microsomal (HLM) metabolic stability; settings: liver microsomes
[3] = Aqueous solubility (PBS, SGF, SIF)
in vitro [4] = settings: human, liver microsomes
in vitro [5] = settings: mouse, liver microsomes
Caco-2 cells = assay: Cell membrane permeability, Caco-2 cells assay; settings: for Caco-2 Cells Permeability A to B / Caco-2 Cells Recovery A to B: apical to basolateral; for Caco-2 Cells Permeability A to B / Caco-2 Cells Permeability B to A: first number of cell, 10^−6 cm/sec; for Caco-2 Cells Recovery A to B / Caco-2 Cells Recovery B to A: second number of cell; for Caco-2 Cells Permeability B to A / Caco-2 Cells Recovery B to A: basolateral to apical
in vitro [6] = settings: human, Caco-2
Stat3 [7] = molecular target: Stat3 (Homo sapiens (Human), UniProt P40763); assay: Stat3 DNA-binding activity in nuclear extracts of treated MDA-MB-231 cells, EMSA; format: cell-based; settings: 10 μM
Stat3 (Homo sapiens (Human), UniProt P40763), sequence (P40763 whole entry): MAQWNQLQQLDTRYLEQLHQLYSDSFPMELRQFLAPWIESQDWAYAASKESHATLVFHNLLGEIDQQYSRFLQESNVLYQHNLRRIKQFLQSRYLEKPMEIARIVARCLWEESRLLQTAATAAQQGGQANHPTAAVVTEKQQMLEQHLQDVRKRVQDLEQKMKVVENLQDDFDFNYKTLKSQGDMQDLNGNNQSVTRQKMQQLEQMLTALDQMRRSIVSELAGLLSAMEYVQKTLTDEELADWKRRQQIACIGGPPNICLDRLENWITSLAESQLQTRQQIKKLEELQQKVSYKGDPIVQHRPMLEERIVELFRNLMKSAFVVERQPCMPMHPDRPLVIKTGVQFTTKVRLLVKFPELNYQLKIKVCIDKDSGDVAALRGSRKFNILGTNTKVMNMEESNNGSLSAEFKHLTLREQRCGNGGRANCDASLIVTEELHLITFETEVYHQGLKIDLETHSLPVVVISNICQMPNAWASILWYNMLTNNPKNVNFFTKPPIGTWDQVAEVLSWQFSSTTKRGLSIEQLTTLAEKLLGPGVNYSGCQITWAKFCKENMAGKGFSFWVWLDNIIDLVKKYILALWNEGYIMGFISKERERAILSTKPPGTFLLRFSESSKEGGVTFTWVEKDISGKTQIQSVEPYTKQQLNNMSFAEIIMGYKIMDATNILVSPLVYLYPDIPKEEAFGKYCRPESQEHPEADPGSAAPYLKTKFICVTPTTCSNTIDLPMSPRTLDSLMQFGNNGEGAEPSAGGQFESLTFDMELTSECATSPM
Procedure: (§1) FIG. 3. Effects of select compounds of the present invention on Stat3 DNA-binding activity and Stat3 tyrosine phosphorylation in cells. (FIG. 3A) EMSA analysis of Stat3 DNA-binding activity in nuclear extracts of equal total protein prepared from cells treated with DMSO (0 as control, Con), 5 or 10 μM of compounds for 1-34 h. Positions of Stat3:DNA complexes in gel are labeled. […] Positions of Stat3:DNA complexes or proteins in gel are shown; control (0 or Con) lane represents whole-cell lysates or nuclear extracts prepared from 0.05% DMSO-treated cells. […] Data are representative of 2-3 independent determinations.
The ^32P-labeled oligonucleotide probes used were hSIE (high affinity sis-inducible element from the c-fos gene, m67 variant, 5′-[…]) (SEQ ID NO: 1) that binds Stat1 and Stat3 and MGFe (mammary gland factor element from the bovine β-casein gene promoter, 5′-[…]) (SEQ ID NO: 2) for Stat1 and Stat5 binding. Except where indicated, nuclear extracts were pre-incubated with compound for 30 min at room temperature prior to incubation with the radiolabeled probe for 30 min at 30° C. before subjecting to EMSA analysis. Where appropriate, bands corresponding to Stat3:DNA complexes were scanned and quantified for each concentration of compound using ImageJ and plotted as percent of control (DMSO) against concentration of compound, from which the IC50 values were derived.
Select compounds of the invention were investigated for their inhibitory effects of the active analogs on intracellular Stat3 signaling. […] Nuclear extracts were prepared and subjected to EMSA analysis for Stat3 DNA-binding activity. […] Stat3 DNA-binding activity in MDA-MB-231 cells was inhibited by both Examples 1 and 5 following treatment at 3 h, with little change at 1 h (FIG. 3A).

Stat1 = Stat1 DNA-binding activity in vitro, EMSA (MGFe probe); format: biochemical; settings: 10 μM or 0-30 μM compound
Excerpt: FIG. 2. Effects of select compounds of the present invention on Stat1 and Stat5 DNA-binding activity. […] Positions of Stat:DNA complexes in gel are labeled; control lanes (0 or Con) represent nuclear extracts pre-treated with 10% DMSO. Data are representative of 1-3 independent determinations. […] Where appropriate, bands corresponding to Stat3:DNA complexes were scanned and quantified for each concentration of compound using ImageJ and plotted as percent of control (DMSO) against concentration of compound, from which the IC50 values were derived. In order to determine the specificity of select new analogs active against Stat3 activity, the inventors investigated the effects on the inhibition of other STAT family members, including Stat1 and Stat5 DNA-binding activity in vitro.

MDA-MB-468 = assay: CyQuant cell viability assay, MDA-MB-468; format: cell-based, human; settings: MDA-MB-468, CyQuant, 0-10 μM, 72 h
Procedure: (§2) FIG. 6. Effects of select compounds of the present invention on cell viability. […] Cells were first grown in 6-well plates then were treated once with 0-10 μM of the indicated compounds for 72 h. Viable cells were assayed using CyQuant cell proliferation kit and plotted as % cell viability against concentration. Control (0) represents 0.05% DMSO-treated cells. Values, mean ± S.D. of 2-3 independent determinations.
(§3) Cells in 6-well or 96-well plates were treated with or without compounds for the indicated concentrations and time, and subjected to MTT assay or CyQuant cell proliferation assay (Invitrogen/ThermoFisher Scientific), or harvested and the viable cells were counted by trypan blue exclusion with phase-contrast microscopy.
(§4) Constitutive Stat3 activity promotes tumor cell growth and proliferation and survival (Darnell J E (2005) Nat Med. 11:595-6; Bowman T, et al., (2000) Oncogene 19:2474-2488). Some of the compounds of the present invention were tested against tumor cells harboring constitutively-active Stat3.

pY705Stat3 [8] = assay: Constitutive Stat3 tyrosine phosphorylation, immunoblot, MDA-MB-468 cells; format: cell-based, human; settings: MDA-MB-468, 5 μM, 1 h treatment (inhibition stated only for MDA-MB-231)
Procedure: as §1
(§5) All antibodies tested were purchased from Cell Signaling Technology.
(§6) Altogether, the new analogs show strong, albeit variable degrees of inhibition of constitutive Stat3 DNA-binding activity and Tyr phosphorylation in human tumor cells.

MCF7 = assay: CyQuant cell viability assay, MCF7; format: cell-based, human; settings: MCF7 (no aberrantly-active Stat3), CyQuant, 72 h
Procedure: as §2, §3, §4

pY705Stat3 [9] = assay: Constitutive Stat3 tyrosine phosphorylation, immunoblot, MDA-MB-231 cells; format: cell-based, human; settings: MDA-MB-231, 5 μM, 1 h treatment
Procedure: as §1, §5, §6

MDA-MB-231 = assay: CyQuant cell viability assay, MDA-MB-231; format: cell-based, human; settings: MDA-MB-231, CyQuant, 0-10 μM, 72 h
Procedure: as §2, §3, §4

Stat3 [10] = molecular target: Stat3 (Mus musculus, UniProt P42227); format: biochemical
Stat3 (Mus musculus, UniProt P42227), sequence (P42227 2-770 limits assumed): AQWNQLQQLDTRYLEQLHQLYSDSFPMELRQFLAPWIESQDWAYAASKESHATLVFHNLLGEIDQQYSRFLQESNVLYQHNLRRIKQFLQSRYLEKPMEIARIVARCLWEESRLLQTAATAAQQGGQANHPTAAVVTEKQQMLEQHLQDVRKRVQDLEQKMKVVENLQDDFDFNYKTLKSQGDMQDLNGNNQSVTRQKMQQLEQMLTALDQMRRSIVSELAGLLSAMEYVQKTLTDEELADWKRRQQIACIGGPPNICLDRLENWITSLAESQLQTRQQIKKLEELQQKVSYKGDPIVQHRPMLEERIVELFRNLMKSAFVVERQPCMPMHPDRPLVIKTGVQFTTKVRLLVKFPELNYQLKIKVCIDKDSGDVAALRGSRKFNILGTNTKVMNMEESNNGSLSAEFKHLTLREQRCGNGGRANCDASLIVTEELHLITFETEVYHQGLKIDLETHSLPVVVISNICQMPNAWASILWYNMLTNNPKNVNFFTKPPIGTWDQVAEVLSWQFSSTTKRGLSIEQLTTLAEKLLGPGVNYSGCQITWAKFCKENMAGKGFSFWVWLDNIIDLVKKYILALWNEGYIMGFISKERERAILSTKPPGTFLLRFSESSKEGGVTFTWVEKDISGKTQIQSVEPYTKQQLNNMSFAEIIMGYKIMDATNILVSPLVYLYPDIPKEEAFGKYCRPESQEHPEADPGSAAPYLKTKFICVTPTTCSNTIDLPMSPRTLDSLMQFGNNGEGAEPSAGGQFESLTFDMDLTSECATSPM
Procedure: FIG. 1. Effect of select compounds of the present invention on Stat3 DNA-binding activity in vitro. […] Positions of Stat3:DNA complexes in gel are labeled; control lanes (0) represent nuclear extracts pre-treated with 10% DMSO.
Except where indicated, nuclear extracts were pre-incubated with compound for 30 min at room temperature prior to incubation with the radiolabeled probe for 30 min at 30° C. before subjecting to EMSA analysis. Where appropriate, bands corresponding to Stat3:DNA complexes were scanned and quantified for each concentration of compound using ImageJ and plotted as percent of control (DMSO) against concentration of compound, from which the IC50 values were derived.

pSrc = assay: Stat3-independent signaling, immunoblot of pSrc, MDA-MB-231 cells; format: cell-based, human; settings: MDA-MB-231, 5 μM, 24 h treatment
Excerpt: (§7) FIG. 4. Effects of select compounds of the present invention on Stat3-independent signal transduction events. […] Positions of proteins in gel are labeled; control lane (Con) represents whole-cell lysate prepared from 0.05% DMSO-treated cells.
as §5, §6

pERK1/2 = assay: Stat3-independent signaling, immunoblot of pERK1/2, MDA-MB-231 cells; format: cell-based, human; settings: MDA-MB-231, 5 μM, 24 h treatment
Excerpt: as §7, §5, §6

pJak2 = assay: Stat3-independent signaling, immunoblot of pJak2, MDA-MB-231 cells; format: cell-based, human; settings: MDA-MB-231, 5 μM, 24 h treatment
Excerpt: as §7, §5, §6

Stat5 = Stat5 DNA-binding activity in vitro, EMSA (MGFe probe); format: biochemical; settings: 10 μM or 0-30 μM compound
Excerpt: FIG. 2. […] Positions of Stat:DNA complexes in gel are labeled; control lanes (0 or Con) represent nuclear extracts pre-treated with 10% DMSO. […] Where appropriate, bands corresponding to Stat3:DNA complexes were scanned and quantified for each concentration of compound using ImageJ and plotted as percent of control (DMSO) against concentration of compound, from which the IC50 values were derived.

[11] = simulated gastric fluid (SGF), pH 1.2, simulated gastric fluid
[12] = Stat3 DNA-binding activity in vitro, nuclear extracts pre-incubated with compound 30 min at room temperature, hSIE probe, read-out: EMSA IC50

Compound: C[C@H](C(=O)N(Cc1ccc(C2CCCCC2)cc1)c1ccc(C(=O)[O-])c(O)c1)N(C)S(=O)(=O)c1c(F)c(F)c(F)c(F)c1F.[Na+]
- Metabolic Stability Half-Life MLM [1]: 5 min
- Metabolic Stability Half-Life HLM [2]: 4 min
- solubility in PBS buffer pH 7.4 [3]: 127 μg/mL
- solubility in simulated intestinal fluid (SIF) [3]: 127 µg/mL
- Solubility PBS ([3]; PBS buffer pH 7.4): 127 micrograms/milliliter
- Solubility SIF ([3]; simulated intestinal fluid): 127 micrograms/milliliter
- half-life (in vitro [4]): ≤ 5 min
- half-life (in vitro [5]): ≤ 5 min
- solubility (physchem; [11]): 1.3 µg/mL
- Caco-2 Cells Permeability A to B (Caco-2 cells): 0
- Caco-2 Cells Recovery A to B (Caco-2 cells): 6%
- Caco-2 Cells Permeability B to A (Caco-2 cells): 0
- Caco-2 Cells Recovery B to A (Caco-2 cells): 2%
- Caco-2 permeability (Caco-2 cells; compounds with cyclohexyl group instead of THP ring): no appreciable permeability

Compound: O=C([O-])c1ccc(N(Cc2ccc(C3CCOCC3)cc2)C(=O)[C@H]2CCCN2S(=O)(=O)c2c(F)c(F)c(F)c(F)c2F)cc1O.[Na+]
- half-life (in vitro [4]): 15 min
- half-life (in vitro [5]): 18 min
- solubility (physchem; PBS buffer, pH 7.4, aqueous buffer): 132 µg/mL
- solubility (physchem; [11]): 0.4 µg/mL
- solubility (physchem; simulated intestinal fluid (SIF), fassgf or other biorelevant): 129 µg/mL
- Papp (in vitro [6]): 0.1 ×10⁻⁶ cm/s
- Caco-2 Cells Permeability A to B (Caco-2 cells): 0.2
- Caco-2 Cells Recovery A to B (Caco-2 cells): 34%
- Caco-2 Cells Permeability B to A (Caco-2 cells): 0.2
- Caco-2 Cells Recovery B to A (Caco-2 cells): 60%

Compound: C[C@@H](C(=O)N(Cc1ccc(C2CCCCC2)cc1)c1ccc(C(=O)O)c(O)c1)N(C)S(=O)(=O)c1c(F)c(F)c(F)c(F)c1F [Example 5, (S)-4-(N-(4-Cyclohexylbenzyl)-2-((2,3,4,5,6-pentafluoro-N-methylphenyl)sulfonamido)propan-amido)-2-hydroxybenzoic acid]
- Stat3 DNA-binding activity in MDA-MB-231 cells (Stat3 [7]; 1 h treatment): little change
- Stat3 DNA-binding activity in MDA-MB-231 cells (Stat3 [7]; 3 h treatment): inhibited
- Stat3 DNA-binding activity in MDA-MB-231 cells (Stat3 [7]; 24 h treatment): inhibited
- effect on Stat1 DNA-binding activity (Stat1): inhibited Stat1 activity to a moderate extent

Compound: C[C@H](C(=O)N(Cc1ccc(C2CCCCC2)cc1)c1ccc(C(=O)O)cc1Cl)N(C)S(=O)(=O)c1c(F)c(F)c(F)c(F)c1F [Example 40, (R)-3-chloro-4-(N-(4-cyclohexylbenzyl)-2-((2,3,4,5,6-pentafluoro-N-methylphenyl)sulfonamido)propanamido)benzoic acid]
- effect on pSrc (pSrc): little effect
- effect on pERK1/2 (pERK1/2): little effect
- effect on pJak2 (pJak2): little effect

Compound: C[C@H](C(=O)N(Cc1ccc(C2CCOCC2)cc1)c1ccc(C(=O)O)c(O)c1)N(C)S(=O)(=O)c1c(F)c(F)c(F)c(F)c1F [Example 57, (R)-2-Hydroxy-4-(2-((2,3,4,5,6-pentafluoro-N-methylphenyl)sulfonamido)-N-(4-(tetrahydro-2H-pyran-4-yl)benzyl)propanamido)benzoic acid]
- effect on Stat5 DNA-binding activity (Stat5): minimum effect
- IC50 (Stat3 [10]; [12]): 5 ± 0.8 µM

Compound: C[C@H](C(=O)N(Cc1ccc(C2CCOCC2)cc1)c1ccc(C(=O)[O-])c(O)c1)N(C)S(=O)(=O)c1c(F)c(F)c(F)c(F)c1F.[Na+] [Example 59, Sodium (R)-2-hydroxy-4-(2-((2,3,4,5,6-pentafluoro-N-methylphenyl)sulfonamido)-N-(4-(tetrahydro-2H-pyran-4-yl)benzyl)propanamido)benzoate]
- Metabolic Stability Half-Life MLM [1]: 4 min
- Metabolic Stability Half-Life HLM [2]: 5 min
- half-life (in vitro [4]): ≤ 5 min
- half-life (in vitro [5]): ≤ 5 min
- Papp B→A (in vitro [6]): 0.7 ×10⁻⁶ cm/s
- recovery (in vitro [6]): 31%
- Caco-2 Cells Recovery B to A (Caco-2 cells): 40%

Further lines, with some results ahead:

- IC50 (Stat3 [10]; EMSA, read-out: IC50, inhibition of Stat3 DNA-binding activity in vitro): 2.4 µM
- IC50 (Stat3 [10]; [12]): 2.4 ± 0.4 µM
Compound: O=C(O)c1ccc(N(Cc2ccc(C3CCCCC3)cc2)C(=O)[C@H]2CCCN2S(=O)(=O)c2c(F)c(F)c(F)c(F)c2F)cc1O [Example 25, (R)-4-(N-(4-Cyclohexylbenzyl)-1-((pentafluorophenyl)sulfonyl)pyrrolidine-2-carboxamido)-2-hydroxybenzoic acid]
- cell viability (MDA-MB-468): suppressed the viability
- pY705Stat3 levels (pY705Stat3 [8]): only inhibited pY705Stat3 levels in MDA-MB-231
- cell viability (MCF7): only weakly or not inhibited
- pY705Stat3 levels (pY705Stat3 [9]): inhibited pY705Stat3 levels
- cell viability (MDA-MB-231): suppressed the viability

- IC50 (Stat3 [10]; [12]): 7.2 ± 3.4 µM
Compound: O=C(O)c1ccc(N(Cc2ccc(C3CCCCC3)cc2)C(=O)[C@@H]2CCCN2S(=O)(=O)c2c(F)c(F)c(F)c(F)c2F)cc1O [Example 26, (S)-4-(N-(4-Cyclohexylbenzyl)-1-((pentafluorophenyl)sulfonyl)pyrrolidine-2-carboxamido)-2-hydroxybenzoic acid]
- pY705Stat3 levels (pY705Stat3 [8]): only inhibited pY705Stat3 levels in MDA-MB-231
- pY705Stat3 levels (pY705Stat3 [9]): inhibited pY705Stat3 levels

- half-life (in vitro [4]): 54 min
- half-life (in vitro [5]): 26 min
- Papp (in vitro [6]): 0.2 ×10⁻⁶ cm/s
- Caco-2 Cells Permeability A to B (Caco-2 cells): 0.1
- Caco-2 Cells Recovery A to B (Caco-2 cells): 8%
- Caco-2 Cells Permeability B to A (Caco-2 cells): 0.1
- Caco-2 Cells Recovery B to A (Caco-2 cells): 67%
Compound: O=C(O)c1ccc(N(Cc2ccc(C3CCOCC3)cc2)C(=O)[C@H]2CCCN2S(=O)(=O)c2c(F)c(F)c(F)c(F)c2F)c(F)c1 [Example 60, (R)-3-Fluoro-4-(1-((perfluorophenyl)sulfonyl)-N-(4-(tetrahydro-2H-pyran-4-yl)benzyl)pyrrolidine-2-carboxamido)benzoic acid]
